The term pest or weed control denotes the degree to which the test organism was suppressed or injured, in per cent. Read a high pest or weed control as strong suppression.

Pest or weed control data for 8 compounds are collected here from patent publication US8828908B2, “Herbicidally active bicyclic 1,3-dione compounds” (Syngenta Limited, priority 2007, dated 2014).

Molecules are shown by their SMILES.

Holding throughout (type): in vivo
Test [1] has as its system Alopecurus myosuroides (ALOMY). Kind of test: Example A pre-emergence herbicidal glasshouse test. The following applies: 312 h, Rate 250 g/ha, evaluated after 13 days, 100=total damage to plant, 0=no damage to plant. The essentials:
(§1)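 Herbicidal effect was judged 13 days after treatment as percent-style damage (100 = total kill). Seeds in standard soil had grown 1 day (pre) or 8 days (post) in a 24/16 °C, 14 h light, 65% humidity glasshouse before spraying with compound in acetone/water (50:50) containing 0.5% Tween 20.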

Test [2] deals with Amaranthus retroflexus (AMARE). As to the kind of experiment: Example A pre-emergence herbicidal glasshouse test. To be noted: 312 h, Rate 250 g/ha, evaluated after 13 days, 100=total damage to plant, 0=no damage to plant. The essentials: as §1
The test system of test [3] is Avena fatua (AVEFA). As to the kind of experiment: Example A pre-emergence herbicidal glasshouse test. The following applies: 312 h, Rate 250 g/ha, evaluated after 13 days, 100=total damage to plant, 0=no damage to plant. The essentials:
as §1

Test [4] deals with Echinochloa crus-galli (ECHCG). As to the kind of experiment: Example A pre-emergence herbicidal glasshouse test. The following applies: 312 h, Rate 250 g/ha, evaluated after 13 days, 100=total damage to plant, 0=no damage to plant. The essentials:
as §1

The subject of test [5] is Setaria faberi (SETFA). Kind of test: Example A pre-emergence herbicidal glasshouse test. To be noted: 312 h, Rate 250 g/ha, evaluated after 13 days, 100=total damage to plant, 0=no damage to plant. The essentials:
as §1

The subject of test [6] is Alopecurus myosuroides (ALOMY). Kind of test: Example A post-emergence herbicidal glasshouse test. The following applies: 312 h, evaluated after 13 days, 100=total damage to plant, 0=no damage. The essentials: as §1
Test [7] has as its system Amaranthus retroflexus (AMARE). The test is described as above. To be noted: 312 h, evaluated after 13 days, 100=total damage to plant, 0=no damage. The essentials: as §1
The test system of test [8] is Avena fatua (AVEFA). The test is described as above. To be noted: 312 h, evaluated after 13 days, 100=total damage to plant, 0=no damage. The essentials: as §1
Test [9] relates to Echinochloa crus-galli (ECHCG). The test is described as above. To be noted: 312 h, evaluated after 13 days, 100=total damage to plant, 0=no damage. The essentials: as §1
The test system of test [10] is Setaria faberi (SETFA). The description is as above. To be noted: 312 h, evaluated after 13 days, 100=total damage to plant, 0=no damage. The essentials:
as §1

Test [11] has as its system Alopecurus myosuroides (ALOMY). Kind of test: Example B pre-emergence herbicidal greenhouse test. The following applies: 480 h, evaluated after 20 days, 100=total damage to plant, 0=no damage. On the procedure: (§2) Seeds of a variety of test species were sown in standard soil in pots. After cultivation for one day (pre-emergence) or after 10 days cultivation (post-emergence) under controlled conditions in a glasshouse, the plants were sprayed with an aqueous spray solution derived from the formulation of the technical active ingredient in 0.6 ml acetone and 45 ml formulation solution containing 10.6% Emulsogen EL (Registry number 61791-12-6), 42.2% N-methylpyrrolidone, 42.2% dipropylene glycol monomethyl ether (Registry number 34590-94-8) and 0.2% X-77 (Registry number 11097-66-8). The test plants were then grown in a greenhouse under optimum conditions until, 15 days later for post-emergence and 20 days for pre-emergence, the test was evaluated (100=total damage to plant; 0=no damage to plant).
(§3) Alopecurus myosuroides (ALOMY), Avena fatua (AVEFA), Lolium perenne (LOLPE), Setaria faberi (SETFA), Digitaria sanguinalis (DIGSA), Echinochloa crus-galli (ECHCG)

Test [12] deals with Avena fatua (AVEFA). Kind of test: Example B pre-emergence herbicidal greenhouse test. To be noted: 480 h, evaluated after 20 days, 100=total damage to plant, 0=no damage. On the procedure: as §2, §3
Test [13] concerns Digitaria sanguinalis (DIGSA). Kind of test: Example B pre-emergence herbicidal greenhouse test. The following applies: 480 h, evaluated after 20 days, 100=total damage to plant, 0=no damage. The method, then:
as §2, §3

The test system of test [14] is Echinochloa crus-galli (ECHCG). As to the kind of experiment: Example B pre-emergence herbicidal greenhouse test. To be noted: 480 h, evaluated after 20 days, 100=total damage to plant, 0=no damage. On the procedure: as §2, §3
The subject of test [15] is Lolium perenne (LOLPE). As to the kind of experiment: Example B pre-emergence herbicidal greenhouse test. To be noted: 480 h, evaluated after 20 days, 100=total damage to plant, 0=no damage. On the procedure:
as §2, §3

Test [16] deals with Setaria faberi (SETFA). As to the kind of experiment: Example B pre-emergence herbicidal greenhouse test. The following applies: 480 h, evaluated after 20 days, 100=total damage to plant, 0=no damage. On the procedure: as §2, §3
The subject of test [17] is Alopecurus myosuroides (ALOMY). Kind of test: Example B post-emergence herbicidal greenhouse test. To be noted: 360 h, evaluated after 15 days, 100=total damage to plant, 0=no damage. On the procedure:
as §2, §3

The subject of test [18] is Avena fatua (AVEFA). The test is described as above. To be noted: 360 h, evaluated after 15 days, 100=total damage to plant, 0=no damage. The method, then: as §2, §3
The test system of test [19] is Digitaria sanguinalis (DIGSA). The test is described as above. To be noted: 360 h, evaluated after 15 days, 100=total damage to plant, 0=no damage. The method, then:
as §2, §3

Test [20] relates to Echinochloa crus-galli (ECHCG). The test is described as above. To be noted: 360 h, evaluated after 15 days, 100=total damage to plant, 0=no damage. On the procedure:
as §2, §3

The subject of test [21] is Lolium perenne (LOLPE). The test is described as above. To be noted: 360 h, evaluated after 15 days, 100=total damage to plant, 0=no damage. The method, then: as §2, §3
Test [22] concerns Setaria faberi (SETFA). The test is described as above. The following applies: 360 h, evaluated after 15 days, 100=total damage to plant, 0=no damage. The method, then: as §2, §3

Regarding `CCc1ccc(-c2ccc(Cl)cc2Cl)cc1C1=C(OC(=O)OC)[C@H]2CC[C@H](C2)C1=O` (single isomer, unassigned) [Compound P4, carbonic acid 3-(2′,4′-dichloro-4-ethylbiphen-3-yl)-4-oxo-bicyclo[3.2.1]oct-2-en-2-yl ester methyl ester], the pest or weed control at 250 g/ha in test [1] is 80%; in test [2], 40%; with Avena fatua (AVEFA) [3], 50%; in test [4], 90%; with Setaria faberi (SETFA) [5], 100%; in [6], 100%. Further, the pest or weed control at 250 g/ha in test [7] is 0%; with Avena fatua (AVEFA) [8], 90%; in test [9], 100%; in the test with Setaria faberi (SETFA) [10], 100%; in test [11], 90%; with Avena fatua (AVEFA) [12], 70%. Further, the pest or weed control at 250 g/ha in [13] was 100%; in test [14], 100%; with Lolium perenne (LOLPE) [15], 90%; in the test on Setaria faberi (SETFA) [16] it was 100%. The pest or weed control at 125 g/ha in [17] worked out at 100%; in the test on Avena fatua (AVEFA) [18], 80%; in [19] it was 100%; in test [20] it was 100%; in the test with Lolium perenne (LOLPE) [21], 90%; in the test on Setaria faberi (SETFA) [22], 100%.
On to `CCc1ccc(-c2ccc(Cl)cc2Cl)cc1C1=C(OC(C)=O)[C@H]2CC[C@H](C2)C1=O` (single isomer, unassigned) [Compound P7], for which the pest or weed control at 250 g/ha in [1] stood at 40%; in test [2], 0%; in the test with Avena fatua (AVEFA) [3], 90%; in test [4], 100%; with Setaria faberi (SETFA) [5] it was 100%; in test [6], 90%. Besides, the pest or weed control at 250 g/ha in test [7] turned out to be 0%; in the test on Avena fatua (AVEFA) [8] it was 100%; in [9], 100%; with Setaria faberi (SETFA) [10] it was 100%; in [11], 70%; with Avena fatua (AVEFA) [12], 30%. Moreover, the pest or weed control at 250 g/ha in [13] worked out at 80%; in [14], 50%; in the test with Lolium perenne (LOLPE) [15] it was 70%; with Setaria faberi (SETFA) [16], 80%. Moreover, the pest or weed control at 125 g/ha in [17] is 60%; in the test with Avena fatua (AVEFA) [18], 80%; in test [19], 90%; in test [20], 100%; in the test with Lolium perenne (LOLPE) [21] it was 70%; in the test with Setaria faberi (SETFA) [22] it was 100%.
Take `Cc1ccc(-c2ccc(Cl)c(F)c2)cc1C1=C(O)[C@H]2CC[C@H](C2)C1=O` (single isomer, unassigned) [Compound T31]: the pest or weed control at 250 g/ha in test [11] amounted to 70%; with Avena fatua (AVEFA) [12] it was 40%; in test [13], 70%; in test [14], 80%; in the test on Lolium perenne (LOLPE) [15], 30%; in the test with Setaria faberi (SETFA) [16] it was 100%. The pest or weed control at 125 g/ha was 30% in test [17]; 0% with Avena fatua (AVEFA) [18]; 70% in [19]; 70% in test [20]; 20% with Lolium perenne (LOLPE) [21]; 80% in the test on Setaria faberi (SETFA) [22].
Turning to `CC(=O)OC1=C(c2c(C)cc(-c3ccccc3)cc2C)C(=O)[C@@H]2CC[C@H]1C2` [Compound P1], the pest or weed control at 250 g/ha in test [11] is 30%; in the test on Avena fatua (AVEFA) [12], 30%; in [13], 70%; in test [14] it was 100%; with Lolium perenne (LOLPE) [15] it was 60%; with Setaria faberi (SETFA) [16], 70%. The pest or weed control at 125 g/ha was 20% in [17]; 0% in the test with Avena fatua (AVEFA) [18]; 60% in test [19]; 60% in test [20]; 20% in the test on Lolium perenne (LOLPE) [21]; 70% in the test on Setaria faberi (SETFA) [22].
As for `Cc1cc(-c2ccccc2)cc(C)c1C1=C(OC(=O)C(C)(C)C)C2CCC(C2)C1=O` (centres unmarked) [Compound P2, 3-(3,5-dimethylbiphen-4-yl)-4-oxo-bicyclo[3.2.1]oct-2-en-2-yl 2,2-dimethylpropionate], the pest or weed control at 250 g/ha in test [11] came out at 30%; with Avena fatua (AVEFA) [12], 40%; in test [13], 70%; in [14], 50%; with Lolium perenne (LOLPE) [15] it was 30%; in the test with Setaria faberi (SETFA) [16], 70%. Moreover, the pest or weed control at 125 g/ha was 30% in test [17]; 0% with Avena fatua (AVEFA) [18]; 40% in [19]; 60% in test [20]; 10% in the test on Lolium perenne (LOLPE) [21]; 40% in the test with Setaria faberi (SETFA) [22].
Turning to `CCc1ccc(-c2ccc(F)cc2)cc1C1=C(O)[C@H]2CC[C@H](C2)C1=O` [Compound T3], the pest or weed control at 250 g/ha in [11] was found to be 50%; in the test on Avena fatua (AVEFA) [12] it was 60%; in test [13], 80%; in [14], 100%; with Lolium perenne (LOLPE) [15], 70%; in the test with Setaria faberi (SETFA) [16], 100%. Moreover, the pest or weed control at 125 g/ha in [17] stood at 50%; in the test with Avena fatua (AVEFA) [18] it was 30%; in test [19] it was 80%; in [20], 90%; in the test with Lolium perenne (LOLPE) [21], 0%; in the test on Setaria faberi (SETFA) [22], 90%.
Turning to `CCc1ccc(-c2ccc(C)cc2)cc1C1=C(O)[C@H]2CC[C@H](C2)C1=O` [Compound T5], the pest or weed control at 250 g/ha was 0% in test [11]; 10% in the test with Avena fatua (AVEFA) [12]; 10% in test [13]; 100% in test [14]; 0% in the test with Lolium perenne (LOLPE) [15]; 0% in the test with Setaria faberi (SETFA) [16]. Moreover, the pest or weed control at 125 g/ha is 0% in test [17]; 0% with Avena fatua (AVEFA) [18]; 50% in test [19]; 80% in [20]; 0% in the test on Lolium perenne (LOLPE) [21]; 70% with Setaria faberi (SETFA) [22].
On to `Cc1cc(-c2ccccc2)cc(C)c1C1=C(O)[C@H]2CC[C@H](C2)C1=O` [Compound T6, 3-(3,5-dimethylbiphen-4-yl)bicyclo[3.2.1]-2,4-dione], for which the pest or weed control at 250 g/ha amounted to 60% in [11]; 0% with Avena fatua (AVEFA) [12]; 100% in test [13]; 90% in test [14]; 50% in the test on Lolium perenne (LOLPE) [15]; 80% in the test on Setaria faberi (SETFA) [16]. The pest or weed control at 125 g/ha was 20% in test [17]; 10% in the test with Avena fatua (AVEFA) [18]; 10% in test [19]; 30% in test [20]; 10% in the test with Lolium perenne (LOLPE) [21]; 0% in the test on Setaria faberi (SETFA) [22].
